From patent US20150176022A1, “HERBICIDE-RESISTANT SUNFLOWER PLANTS, POLYNUCLEOTIDES ENCODING HERBICIDE=RESISTANT ACETO HYDROXY ACID SYNTHASE LARGE SUBUNIT PROTEINS, AND METHODS OF USE” (priority 2013, published 2015)
Values joined by “and” are separate entries in the source; they are usually repeats but may differ in a detail not shown here. Equal values may be shown once.

Columns and labels:
[1] = tested on: sunflower genotypes carrying the A122T mutation event; assay: Greenhouse whole-plant imazapir dose response (Example 8), group mean; type: in vivo, Helianthus annuus; conditions: 14 DAT; for biomass, Dif with control (reduction), A122T / plant height, Dif with Control (height reduction), A122T / root dry weight, Dif with control (reduction), A122T: A122T mean; for biomass accumulation (% of untreated), Mean A122T / plant height (% of untreated), Mean A122T / root dry weight (% of untreated), Mean A122T: mean of six A122T genotypes; for Phytotoxicity Index, Mean A122T: mean of three A122T genotypes
Description: (§1) A greenhouse study was conducted to quantify and contrast the imazapir sensitivity of the mutants A122T and A205V in different genetic backgrounds at the whole plant level in sunflower. Seeds of the different sunflower lines that were used in this study were obtained under field conditions.
(§2) Seeds were sown in Petri dishes and, after germination, plantlets were transplanted to pots of 10 cm of diameter in a potting media consisting of equal parts of vermiculite, soil and sand. Plants were grown in a greenhouse under natural light conditions supplemented with 400 W sodium halide lamps to provide a 16 hrs daylength. Day/night temperatures were 25 and 20° C., respectively. At the V2 stage 10 plants of each genotype were randomly assigned to each treatment consisting of […] imazapir doses (0, 40, 80, 160, 240, 320, 400 and 480 g ai/ha), and a zero-time biomass determination. Experiment was arranged as a randomized block design with a full factorial (sunflower line×treatment) arrangement of treatments and 10 replications.
(§3) On the day of herbicide application ten plants of each genotype were cut at the cotyledonal node and dried at 60° C. for 48 hrs zero-time for dried weight determination. […] Height was determined as the distance between the cotyledonal node and the apex of each plant. For root biomass determination, each plant was taken from the pot and the potting media was washed out from the roots. Above ground biomass data from each line were converted to biomass accumulation after application by subtracting the appropriate average zero-time biomass from each sample. Dry biomass data were converted to percentages of the untreated control plants within each line to allow direct comparisons between groups.

[2] = tested on: sunflower genotypes carrying the A205V mutation event; assay: as above; type: in vivo, Helianthus annuus; conditions: A205V mean, 14 DAT
Description: as §1, §2, §3

CC(C)C1(C)N=C(c2ncccc2C(=O)O)NC1=O (stereo not shown) [imazapir, imazapyr]
biomass, Dif with control (reduction), A122T ([1]; 0.5× (40 g ai/ha)): 1.1% | plant height, Dif with Control (height reduction), A122T ([1]; 0.5× (40 g ai/ha)): 0.6% | root dry weight, Dif with control (reduction), A122T ([1]; 0.5× (40 g ai/ha)): 0.1% | biomass, Dif with control (reduction), A122T ([1]; 1× (80 g ai/ha)): 3.2% | plant height, Dif with Control (height reduction), A122T ([1]; 1× (80 g ai/ha)): 1.4% | root dry weight, Dif with control (reduction), A122T ([1]; 1× (80 g ai/ha)): 2.5% | biomass, Dif with control (reduction), A122T ([1]; 2× (160 g ai/ha)): 5.1% | plant height, Dif with Control (height reduction), A122T ([1]; 2× (160 g ai/ha)): 2.7% | root dry weight, Dif with control (reduction), A122T ([1]; 2× (160 g ai/ha)): 5.9% | biomass, Dif with control (reduction), A122T ([1]; 3× (240 g ai/ha)): 7.2% | plant height, Dif with Control (height reduction), A122T ([1]; 3× (240 g ai/ha)): 4.4% | root dry weight, Dif with control (reduction), A122T ([1]; 3× (240 g ai/ha)): 10.6% | biomass, Dif with control (reduction), A122T ([1]; 4× (320 g ai/ha)): 12.2% | plant height, Dif with Control (height reduction), A122T ([1]; 4× (320 g ai/ha)): 6.3% | root dry weight, Dif with control (reduction), A122T ([1]; 4× (320 g ai/ha)): 18.6% | biomass, Dif with control (reduction), A122T ([1]; 5× (400 g ai/ha)): 20.7% | plant height, Dif with Control (height reduction), A122T ([1]; 5× (400 g ai/ha)): 10.2% | root dry weight, Dif with control (reduction), A122T ([1]; 5× (400 g ai/ha)): 21.3% | biomass, Dif with control (reduction), A122T ([1]; 6× (480 g ai/ha)): 25% and 25.4% | plant height, Dif with Control (height reduction), A122T ([1]; 6× (480 g ai/ha)): 15.8% | root dry weight, Dif with control (reduction), A122T ([1]; 6× (480 g ai/ha)): 38.3% | biomass accumulation (% of untreated), Mean A122T ([1]; 0.5× (40 g ai/ha)): 98.9% | plant height (% of untreated), Mean A122T ([1]; 0.5× (40 g ai/ha)): 99.4% | root dry weight (% of untreated), Mean A122T ([1]; 0.5× (40 g ai/ha)): 99.9% | biomass accumulation (% of untreated), Mean A122T ([1]; 1× (80 g ai/ha)): 96.8% | plant height (% of untreated), Mean A122T ([1]; 1× (80 g ai/ha)): 98.6% | root dry weight (% of untreated), Mean A122T ([1]; 1× (80 g ai/ha)): 97.5% | biomass accumulation (% of untreated), Mean A122T ([1]; 2× (160 g ai/ha)): 94.9% | plant height (% of untreated), Mean A122T ([1]; 2× (160 g ai/ha)): 97.3% | root dry weight (% of untreated), Mean A122T ([1]; 2× (160 g ai/ha)): 94.1% | biomass accumulation (% of untreated), Mean A122T ([1]; 3× (240 g ai/ha)): 92.8% | plant height (% of untreated), Mean A122T ([1]; 3× (240 g ai/ha)): 95.6% | root dry weight (% of untreated), Mean A122T ([1]; 3× (240 g ai/ha)): 89.4% | biomass accumulation (% of untreated), Mean A122T ([1]; 4× (320 g ai/ha)): 87.8% | plant height (% of untreated), Mean A122T ([1]; 4× (320 g ai/ha)): 93.7% | root dry weight (% of untreated), Mean A122T ([1]; 4× (320 g ai/ha)): 81.4% | biomass accumulation (% of untreated), Mean A122T ([1]; 5× (400 g ai/ha)): 79.3% | plant height (% of untreated), Mean A122T ([1]; 5× (400 g ai/ha)): 89.8% | root dry weight (% of untreated), Mean A122T ([1]; 5× (400 g ai/ha)): 78.7% | biomass accumulation (% of untreated), Mean A122T ([1]; 6× (480 g ai/ha)): 74.6% | plant height (% of untreated), Mean A122T ([1]; 6× (480 g ai/ha)): 84.2% | root dry weight (% of untreated), Mean A122T ([1]; 6× (480 g ai/ha)): 61.7% | Phytotoxicity Index, Mean A122T ([1]; 0.5× (40 g ai/ha)): 0.3 | Phytotoxicity Index, Mean A122T ([1]; 1× (80 g ai/ha)): 0.3 | Phytotoxicity Index, Mean A122T ([1]; 2× (160 g ai/ha)): 0.3 | Phytotoxicity Index, Mean A122T ([1]; 3× (240 g ai/ha)): 0.3 | Phytotoxicity Index, Mean A122T ([1]; 4× (320 g ai/ha)): 0.5 | Phytotoxicity Index, Mean A122T ([1]; 5× (400 g ai/ha)): 0.8 | Phytotoxicity Index, Mean A122T ([1]; 6× (480 g ai/ha)): 1.2 | biomass, Dif with control (reduction), A205V ([2]; 0.5× (40 g ai/ha)): 5.5% | plant height, Dif with Control (height reduction), A205V ([2]; 0.5× (40 g ai/ha)): 5.6% | root dry weight, Dif with control (reduction), A205V ([2]; 0.5× (40 g ai/ha)): 12.8% | biomass, Dif with control (reduction), A205V ([2]; 1× (80 g ai/ha)): 17.8% | plant height, Dif with Control (height reduction), A205V ([2]; 1× (80 g ai/ha)): 10.8% | root dry weight, Dif with control (reduction), A205V ([2]; 1× (80 g ai/ha)): 29.2% | biomass, Dif with control (reduction), A205V ([2]; 2× (160 g ai/ha)): 38.4% | plant height, Dif with Control (height reduction), A205V ([2]; 2× (160 g ai/ha)): 30.8% | root dry weight, Dif with control (reduction), A205V ([2]; 2× (160 g ai/ha)): 49.4% | biomass, Dif with control (reduction), A205V ([2]; 3× (240 g ai/ha)): 52.4% | plant height, Dif with Control (height reduction), A205V ([2]; 3× (240 g ai/ha)): 49.6% | root dry weight, Dif with control (reduction), A205V ([2]; 3× (240 g ai/ha)): 60.8%
